Assay results published in paper PMC12216609, “Inhibitors of eIF1A-ribosome interaction unveil uORF-dependent regulation of translation initiation and antitumor and antiviral effects” (The EMBO Journal, 2025).
Several values for one entry are separate records, joined by “and”; a condition that tells them apart may be missing. Identical values can stand only once.

Experiments:
eIF1A-RPS10 interaction = biological target: T1, eIF1A-RPS10 interaction (Homo sapiens, UniProt P46783+P47813); experiment: Split-Renilla luciferase eIF1A-RPS10 interaction screen, dose-response; type: biochemical; settings: Appendix Table S1; read-out: IC50 from the split RL screen
T1 construct: made in house; host or cells: E. coli BL21 (PRSFduet); unpurified lysate supernatant
Experimental: While knockdown (KD) studies of eIF1A provided valuable insights into its role in mammalian cell translation (Sehrawat et al, [2019]), this approach presents several limitations. First, it fails to elucidate the functional significance of the opposing functions of eIF1A N- and C-terminal tails with respect to scanning and start codon fidelity. Second, the extended duration required for achieving efficient knockdown, 48–72 h, impairs our ability to differentiate between direct and indirect effects. To overcome these constraints, we set out to develop small-molecule inhibitors targeting eIF1A. Guided by structural and biochemical studies showing eIF1A binding to the small ribosomal subunit at the A-site and interacting directly with RPS10 through its N-terminal tail (Haimov et al, [2017]; Passmore et al, [2007]; Sehrawat et al, [2019]), our approach focused on disrupting the interaction between eIF1A and RPS10. […] The interaction between eIF1A and RPS10 brings the two parts together, leading to the reconstitution of the enzymatic activity (Haimov et al, [2017]). In this system, the spatial arrangement of the two RL parts is critical for the enzymatic activity, making it sensitive not only to direct interference with the interacting proteins but also to changes in the conformation of the fused proteins. In the eIF1A-RPS10 split-RL pair, the C-terminus of eIF1A is fused to N-RL (Fig. 1A), in order to maintain the NTT accessible to RPS10 binding. This pair was cloned and expressed in bacteria as recombinant proteins and used to screen a library of ~50,000 small molecules from diverse sources (Ashkenazi et al, [2017]).
eIF1A-ΔC-Renilla and RPS10-ΔN-Renilla were transformed into BL21 E. coli by heat shock transformation. A bacterial starter of 5 ml LB was incubated overnight at 37 °C and transferred into 1 L LB for incubation at 37 °C until OD ~ 0.5–0.7. Next, protein expression was induced with 0.5 mM IPTG, and bacterial cells were incubated overnight at 16 °C. Bacterial cell pellet was collected after centrifugation (3000 RPM, 15 min), resuspended in 20 ml TKE buffer (Tris 10 mM, KCl 100 mM, EDTA 0.1 mM), sonicated (bath sonicator, 24 cycles of 30 s) and centrifuged again (15000 RPM, 30 min). Supernatants were collected, analyzed for RL activity, and then used for high throughput drug screen (HTS) at the Weizmann G-INCPM HTS unit as described (Ashkenazi et al, [2017]). In addition to the standard controls of this protocol, the two parts of the split RL, without eIF1A or RPS10, were tested as controls. Selected compounds were purchased from Sigma-Aldrich and Enamine. Compound powders were resuspended in DMSO for a final concentration of 10 mM and stored at −20 °C.

[1] = test system: CUG/GUG vs AUG start codon luciferase reporters in HEK293T cells; experiment: Near-cognate AUG starting codon fidelity reporter assay (GUG, CUG vs AUG); type: cell-based; settings: for GUG vs AUG data (%) / GUG vs AUG (%) Average: compound at 20uM; for GUG vs AUG data (%): individual repeat; for GUG vs AUG (%) Average: summary average of repeats, DMSO control average […]; for CUG vs AUG (%): CUG start codon reporter relative to AUG reporter (AUG = 100); for CUG vs AUG (%) / GUG vs AUG (%): compound at 20uM (summary head), single-experiment calculation; for GUG vs AUG (%): GUG start codon reporter relative to AUG reporter (AUG = 100)
Experimental: We next considered the importance of eIF1A in controlling start codon fidelity in yeast and mammalian cells (Martin-Marcos et al, [2011]; Martin-Marcos et al, [2017]; Sehrawat et al, [2019]; She et al, [2023]) and tested how inhibition of eIF1A by 1Ais affects the initiation from near-cognate AUG. The effect of 1Ais was analyzed using firefly luciferase reporters bearing either AUG (control), CUG, or GUG as the exclusive translation initiation sites. Co-transfected GFP reporter served as an internal control for transfection efficiency.
For the near-cognate AUG Starting codon fidelity reporter assay, HEK293T cells were transfected with 100 ng of the previously described luciferase reporter constructs driven either by AUG, CUG, and GUG (Tang et al, [2017]) together with GFP expressing plasmid (20 ng) as normalizing control. Luciferase and GFP levels were determined as described above.
Appendix Figure S1: (A) HEK293T cells were transfected with Luciferase reporter genes with either CUG or AUG as their exclusive starting codon. 6 hours after transfection, cells were exposed to 1Ais, and the luminescence from all constructs was measured after overnight incubation. Bars represent the ratio between luminescence from the AUG starting codon and CUG after normalization with co-transfected GFP; Error bars represent SEM, * denotes p<0.05 (T-test comparing to DMSO control), n=≥4 independent biological replicates.

[2] = test system: cap-proximal AUG GFP reporter in HEK293T cells; type: cell-based; settings: GFP WB densitometry; 20 µM overnight; dmso 0.965946
Source text: Translation from an AUG preceded by a very short 5'UTR (less than 30 nt) is usually inefficient and frequently bypassed, resulting in initiation from a downstream AUG, a phenomenon known as leaky scanning. […] To examine the impact of 1Ais on short 5'UTR initiation, we used a GFP reporter gene containing an AUG located 16 nt downstream from the 5' end followed by a second in-frame downstream AUG (Fig. 1F; Appendix Fig. S1B). Cells were transfected with this GFP reporter gene followed by exposure to DMSO (vehicle) and 1Ais. Initiations from upstream (US) or downstream (DS) AUGs were determined by western blot (WB) with anti-GFP antibodies and the ratio between the US and DS AUG was determined.
For the analysis of translation from very short 5'UTR and Leaky scanning, HEK293T cells were transfected with a GFP (20 ng/well) reporter gene driven by a cap-proximal and downstream AUGs (Elfakess et al, [2011]) together with a luciferase reporter gene (100 ng/well) as normalizing control and treated with 20 µM of 1Ais as described above. GFP levels were determined by Western blot (WB) (GFP antibody, Abcam #ab290) and quantified by densitometry (ImageJ) and normalized to the measured luciferase activity.
HEK293T cells were transfected with the GFP reporter gene schematically shown on the top. The first
AUG is […] from the 5’ end and the downstream AUG is in the same frame. Six hours after transfection, cells were treated with 1Ais. After overnight exposure to 1Ais, GFP expression was analyzed by WB using anti -GFP antibodies.
US/DS ratio was determined by densitometry and represents the long protein expression (upstream AUG, US) vs the […]
biological replicates. (C-D) Analysis of reporter genes mRNA levels after 1Ais treatment.

[3] = test system: IRF7 5'UTR firefly luciferase reporter in HEK293T cells; settings: for LONG (summary - All), normalized to DMSO: Long reporter; for LONG (summary - All), normalized to DMSO / SHORT (summary - All), normalized to DMSO / average ( long vs short ratio): 20 µM; for LONG (summary - All), normalized to DMSO / SHORT (summary - All), normalized to DMSO: individual replicates, outliers excluded, DMSO = 1; for SHORT (summary - All), normalized to DMSO: Short reporter; for Long 5'UTR reporter luciferase activity, normalized to DMSO (=1), single replicates: compound at 20 µM, left data block (Long), source data of Fig 1C; for average ( long vs short ratio): summary - All;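 for all read-outs here: luciferase signal corrected by a co-transfected GFP reporter for transfection efficiency, read after overnight compound exposure, with Long and Short reporters differing in 5'UTR length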
Experimental: For the effect on ribosomal scanning, we used two firefly luciferase reporter genes that differ in their 5'UTR length (Fig. 1C). […] Cells were transfected with these reporters along with a GFP reporter gene used to normalize transfection efficiency. After an overnight 1Ai or DMSO (vehicle control) exposure, luciferase and GFP expression were measured, and normalized activity was determined.
For the reference vs IRF7 5'UTR luciferase reporter assay, HEK239T cells in a 12-well plate were transfected with the previously described IRF7 5'UTR or reference firefly luciferase reported genes (Sehrawat et al, [2019]) (100 ng/well) together with GFP (20 ng/well) that served as an internal control by CaCl2 transfection. After 6 h, half of the growth medium was replaced with a medium containing the different compounds, reaching a final concentration of 20 µM. Twenty-four hours after transfection, transfection efficiency was evaluated using GFP fluorescence intensity (Cytation 5, ex/em: 470/525). Cells were harvested in 50 µL Reported lysis buffer (RLB) and put on a shaker for 10 min. From each well 5 µL were taken in duplicates and tested by luminometer.

NSP1 = NSP1 (Severe acute respiratory syndrome coronavirus 2, UniProt P0DTD1)
[4] = test system: OVCAR8 cell-derived xenograft; experiment: Xenografts growth after 1Ais treatment in mice; type: in vivo
[5] = raw data calculation of one experiment, GFP normalized, AUG set to 100, compound marked (20)

T1 sequence (P47813 whole entry, one chain of several): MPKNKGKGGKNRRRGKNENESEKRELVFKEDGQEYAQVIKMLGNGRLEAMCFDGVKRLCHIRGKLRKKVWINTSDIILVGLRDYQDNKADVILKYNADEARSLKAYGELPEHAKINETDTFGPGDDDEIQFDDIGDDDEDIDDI

Structure (SMILES)	IC50 (eIF1A-RPS10 interaction)	GUG vs AUG data (%) [1]	GUG vs AUG (%) Average [1]	US/DS ratio, average [2]	LONG (summary - All), normalized to DMSO [3]	SHORT (summary - All), normalized to DMSO [3]	average ( long vs short ratio) [3]	further results
COc1ccc(CN(Cc2nn3c(=O)cc(C)nc3s2)C(C)Cc2cccs2)cc1 (centres unmarked) [1Ai-5751]	18 µM	1.65% and 1.59% and 3.31% and 1.26%	1.95%	1.056	0.26 and 0.28 and 0.72 and 0.89 and 0.77 and 0.31	0.74 and 0.11 and 0.73 and 0.61 and 0.46 and 0.21	1.128	Long 5'UTR reporter luciferase activity, normalized to DMSO (=1), single replicates [3]: 0.2584 and 0.2757 and 0.7216 and 0.8893 and 0.7688 and 0.3143; GFP reporter ratio nsp1/gfp, avg (NSP1): 0.4183; GFP reporter ratio nsp1/gfp, rep 1 (NSP1): 0.4426; GFP reporter ratio nsp1/gfp, rep 2 (NSP1): 0.3941; gfp signal, mean of duplicate wells (NSP1): 2691 and 4145; nsp1 signal, mean of duplicate wells (NSP1): 1060.5 and 1834.5; ratio (nsp1/gfp) (NSP1): 0.394 and 0.443
O=C(Nc1ccc(S(=O)(=O)NC23CC4CC(CC(C4)C2)C3)cc1)c1ccc(Cl)cc1 [1A-3638]								Weight of tumor, average ([4]; group average): 0.2614; Weight of tumor ([4]; individual animals): 0.6521 and 0.1855 and 0.085 and 0.0594 and 0.2257 and 0.0264 and 0.562 and 0.006 and 0.5508; Tumor weight p-value (t-test vs DMSO) ([4]; t.test vs DMSO): 0.005991
c1csc(-c2nc(NCc3nnc4ccccn34)c3ccccc3n2)c1 [1Ai-2136]	29 µM	1.58% and 2.63% and 2.62% and 2.27%	2.27%	0.8866	0.43 and 0.72 and 0.55 and 0.54	0.63 and 0.25 and 0.98 and 0.99 and 0.71 and 0.58	0.813	Long 5'UTR reporter luciferase activity, normalized to DMSO (=1), single replicates [3]: 0.43 and 1.0233 and 1.053 and 0.724 and 0.552 and 0.5382
COC(=O)C1=C(C)NC2=C(C(=O)CC(c3ccc(F)cc3)C2)C1c1ccc(N(C)C)cc1Cl (centres unmarked) [1Ai-9162]	16 µM	2.05% and 2.20% and 2.48% and 2.61%	2.33%	0.9825	0.54 and 0.53 and 0.27 and 0.64	0.54 and 0.47 and 0.46	1.009	CUG vs AUG (%) [1]: 9.614%; GUG vs AUG (%) [1]: 2.083%
O=C1c2ccccc2NC(c2cc(Cl)c3c(c2)OCO3)N1C1CC1 (centres unmarked) [1Ai-6586]	24 µM	1.26% and 0.96% and 1.21% and 1.81%	1.31%	0.8389	0.0557 and 0.45 and 1.19 and 0.73	0.06 and 0.81 and 0.69 and 1.23	0.871	CUG vs AUG (%) [1]: 6.859%; GUG vs AUG (%) [1]: 1.078%
NS(=O)(=O)c1cccc(-c2ccc(C3Nc4ccccc4-c4nc5ccccc5n43)o2)c1 (centres unmarked) [1Ai-0050]	26 µM	2.02% and 1.27% and 1.28% and 1.15%	1.43%	1.064	1.25 and 0.94 and 0.54 and 1.63	0.72 and 0.91	1.337	
O=S(=O)(Cc1cc(Cl)c2c(c1)OCCO2)Cc1nc(-c2ccccc2)no1 [1Ai-6476]	15 µM	1.75% and 1.69% and 1.77% and 1.59%	1.70%	0.719	0.42 and 1.63 and 1.39 and 0.53	0.36 and 1.11 and 1.08 and 0.95	1.134	calculation: CUG (AUG = 100) [1, 5]: 6.068; calculation: GUG (AUG = 100) [1, 5]: 1.669
